Experimental data published in patent US10828143B2, “Tissue-engineered bowel constructs” (Wake Forest University Health Sciences, priority 2015, dated 2020).
Entries after “also recorded” stand apart in the source; their conditions may differ.

Key:
Parameters in all cases: species or system human
circular strips of hTEB = experiment: Organ bath studies of hTEB circular strips following omentum implantation
[1] = tested on: circular strips of implanted engineered sphincter and gut segments; experiment: Real time force generation of circular strips of harvested sphincters and gut tissues
[2] = tested on: sphincter and rectal cuff cross sections; experiment: Physiological studies on cross sections of harvested sphincter and rectal cuff

**Q.** What does the source list for `COC(=O)[C@@H](N)CCCNC(=N)N[N+](=O)[O-].Cl` [LNAME, Nω-Nitro-L-arginine methyl ester hydrochloride]?
**A.** inhibition of EFS-induced relaxation (circular strips of hTEB; pretreatment with LNAME): 50%; EFS-induced relaxation after LNAME pre-treatment ([1]; gut segments, without LNAME −355±8 μN, in µN): −223±29; effect on magnitude of EFS-induced relaxation ([1]; pre-incubation of implants with LNAME): significantly reduced; EFS-induced relaxation after LNAME pre-treatment ([1]; sphincters, without LNAME −294±26 μN): −140±6 μN

**Q.** `NC1=N[C@H](O)[C@H]2[C@H]3O[C@]4(O)O[C@@H]([C@@H](O)[C@@]2(N1)[C@@H]4O)[C@]3(O)CO` [TTX, tetrodotoxin] was tested. Which “effect on EFS-induced relaxation” value (circular strips of hTEB) did it give?
**A.** abolished

**Q.** And the “effect on Ach-induced contraction” value [2]?
**A.** significantly attenuated

**Q.** And the “effect on EFS-induced relaxation” value [2]?
**A.** completely inhibited

**Q.** And the “effect on VIP-induced relaxation” value [2]?
**A.** significantly diminished

**Q.** And the “effect on EFS-induced relaxation” value [1]?
**A.** completely abolished

**Q.** `CN1[C@@H]2CC[C@H]1C[C@@H](OC(=O)C(CO)c1ccccc1)C2` (stereo partly shown) [atropine] was tested. Which “effect on ACh-induced contraction” value (circular strips of hTEB) did it give?
**A.** did not cause a contraction; also recorded: inhibited
